Measured values from patent US11203601B2, “Tricyclic compounds as glycogen synthase kinase 3 (GSK3) inhibitors and uses thereof” (The Broad Institute, Inc., priority 2017, dated 2021).

Key:
Test in all cases: Carna kinome panel
Type in all cases: biochemical
CDC2/CycB1 = CDC2/CycB1 (Homo sapiens (Human), UniProt P06493); details: read-out: % Inhibition at 10 μM of the test compound
NEK6 = NEK6 (Homo sapiens (Human), UniProt Q9HC98); details: read-out: % Inhibition at 10 μM of the test compound
EPHB2 = EPHB2 (Homo sapiens (Human), UniProt P29323); details: read-out: % Inhibition at 10 μM of the test compound
YES(T348I) = YES(T348I) (Homo sapiens (Human), UniProt P07947, T348I); details: read-out: % Inhibition at 10 μM of the test compound
EPHA5 = EPHA5 (Homo sapiens (Human), UniProt P54756); details: read-out: % Inhibition at 10 μM of the test compound
PKCη = PKCη (Homo sapiens (Human), UniProt P24723); details: read-out: % Inhibition at 10 μM of the test compound
MET = MET (Homo sapiens (Human), UniProt P08581); details: read-out: % Inhibition at 10 μM of the test compound
CHK1 = CHK1 (Homo sapiens (Human), UniProt O14757); details: read-out: % Inhibition at 10 μM of the test compound
TSSK2 = TSSK2 (Homo sapiens (Human), UniProt Q96PF2); details: read-out: % Inhibition at 10 μM of the test compound
CK1γ2 = CK1γ2 (Homo sapiens (Human), UniProt P78368); details: read-out: % Inhibition at 10 μM of the test compound
MAP2K3_Cascade = MAP2K3_Cascade (Homo sapiens (Human), UniProt P46734); details: read-out: % Inhibition at 10 μM of the test compound
LCK = LCK (Homo sapiens (Human), UniProt P06239); details: read-out: % Inhibition at 10 μM of the test compound
CK1γ1 = CK1γ1 (Homo sapiens (Human), UniProt Q9HCP0); details: read-out: % Inhibition at 10 μM of the test compound
PIM3 = PIM3 (Homo sapiens (Human), UniProt Q86V86); details: read-out: % Inhibition at 10 μM of the test compound
PGK = PGK (Homo sapiens (Human), UniProt Q13976); details: read-out: % Inhibition at 10 μM of the test compound
DDR2 = DDR2 (Homo sapiens (Human), UniProt Q16832); details: read-out: % Inhibition at 10 μM of the test compound
RET(M918T) = RET(M918T) (Homo sapiens (Human), UniProt P07949, M918T); details: read-out: % Inhibition at 10 μM of the test compound
p70S6Kβ = p70S6Kβ (Homo sapiens (Human), UniProt Q9UBS0); details: read-out: % Inhibition at 10 μM of the test compound
PDGFRα(T674I) = PDGFRα(T674I) (Homo sapiens (Human), UniProt P16234, T674I); details: read-out: % Inhibition at 10 μM of the test compound
PDHK2 = PDHK2 (Homo sapiens (Human), UniProt Q15119); details: read-out: % Inhibition at 10 μM of the test compound
KIT(D816E) = KIT(D816E) (Homo sapiens (Human), UniProt P10721, D816E); details: read-out: % Inhibition at 10 μM of the test compound
SRPK1 = SRPK1 (Homo sapiens (Human), UniProt Q96SB4); details: read-out: % Inhibition at 10 μM of the test compound
RET(Y791F) = RET(Y791F) (Homo sapiens (Human), UniProt P07949, Y791F); details: read-out: % Inhibition at 10 μM of the test compound
FAK = FAK (Homo sapiens (Human), UniProt Q05397); details: read-out: % Inhibition at 10 μM of the test compound
AurA/TPX2 = AurA/TPX2 (Homo sapiens (Human), UniProt O14965); details: read-out: % Inhibition at 10 μM of the test compound
HCK = HCK (Homo sapiens (Human), UniProt P08631); details: read-out: % Inhibition at 10 μM of the test compound
MST4 = MST4 (Homo sapiens (Human), UniProt Q9P289); details: read-out: % Inhibition at 10 μM of the test compound
PKACγ = PKACγ (Homo sapiens (Human), UniProt P22612); details: read-out: % Inhibition at 10 μM of the test compound
DYRK1A = DYRK1A (Homo sapiens (Human), UniProt Q13627); details: read-out: % Inhibition at 10 μM of the test compound
SYK = SYK (Homo sapiens (Human), UniProt P43405); details: read-out: % Inhibition at 10 μM of the test compound
TAOK2 = TAOK2 (Homo sapiens (Human), UniProt Q9UL54); details: read-out: % Inhibition at 10 μM of the test compound
PEK = PEK (Homo sapiens (Human), UniProt Q9NZJ5); details: read-out: % Inhibition at 10 μM of the test compound
EGFR(L861Q) = EGFR(L861Q) (Homo sapiens (Human), UniProt P00533, L861Q); details: read-out: % Inhibition at 10 μM of the test compound
MST1 = MST1 (Homo sapiens (Human), UniProt Q13043); details: read-out: % Inhibition at 10 μM of the test compound
RAF1_Cascade = system: RAF1_Cascade
Procedure: Briefly, a selection of compounds was screened against a panel of kinases at a single concentration of 10 μM. […] This was completed using one of two assays, depending on the kinase being examined: 1) IMAP Assay. A solution of 4× inhibitor, 4× substrate/ATP/metal solution and 2× kinase solution was prepared with assay buffer (20 mM HEPES, 0.01% Tween-20, 2 mM DTT, pH 7.4) and mixed, then incubated in 384-well black plates for 1 hour at room temperature. The IMAP binding reagent (IMAP Screening Express kit; Molecular Devices) was added to each well and incubated for 30 minutes. […] 2) Off-Chip Mobility Shift Assay (MSA). A solution of 4× inhibitor, 4× substrate/ATP/metal solution and 2× kinase solution was prepared with assay buffer (20 mM HEPES, 0.01% Triton X-100, 2 mM DTT, pH 7.5) and mixed, then incubated in 384-well plates for 1 or 5 hours depending on the kinase, at room temperature. Termination buffer (QuickScout Screening assist MSA; Carna Biosciences) was added to each well. The entire reaction mixture was then applied to a LabChip3000 system (Caliper Life Science), and the product and substrate peptide peaks were separated and quantified. […] The entire reaction mixture was then applied to a LabChip3000 system (Caliper Life Science), and the product and substrate peptide peaks were separated and quantified.

MAPKAPK 5 = MAPKAPK 5 (Homo sapiens (Human), UniProt Q8IW41); details: read-out: % Inhibition at 10 μM of the test compound
SGK2 = SGK2 (Homo sapiens (Human), UniProt Q9HBY8); details: read-out: % Inhibition at 10 μM of the test compound
PKCθ = PKCθ (Homo sapiens (Human), UniProt Q04759); details: read-out: % Inhibition at 10 μM of the test compound
MAPKAPK2 = MAPKAPK2 (Homo sapiens (Human), UniProt P49137); details: read-out: % Inhibition at 10 μM of the test compound
SRM = SRM (Homo sapiens (Human), UniProt Q9H3Y6); details: read-out: % Inhibition at 10 μM of the test compound

Sequence of CHK1 (O14757 whole entry): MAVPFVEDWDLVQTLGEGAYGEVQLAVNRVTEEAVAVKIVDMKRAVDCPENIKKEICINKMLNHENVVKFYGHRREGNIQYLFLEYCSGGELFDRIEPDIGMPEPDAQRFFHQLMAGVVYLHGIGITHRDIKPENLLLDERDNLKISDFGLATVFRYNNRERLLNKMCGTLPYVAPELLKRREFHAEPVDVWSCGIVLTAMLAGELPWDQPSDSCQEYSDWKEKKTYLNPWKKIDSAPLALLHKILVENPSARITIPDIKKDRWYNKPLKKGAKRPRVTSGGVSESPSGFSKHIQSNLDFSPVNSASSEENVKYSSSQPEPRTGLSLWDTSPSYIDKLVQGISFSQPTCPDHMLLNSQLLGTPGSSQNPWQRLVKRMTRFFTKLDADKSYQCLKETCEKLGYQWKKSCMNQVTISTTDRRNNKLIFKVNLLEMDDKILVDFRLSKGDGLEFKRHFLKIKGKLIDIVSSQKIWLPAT
Sequence of CK1γ2 (P78368 whole entry): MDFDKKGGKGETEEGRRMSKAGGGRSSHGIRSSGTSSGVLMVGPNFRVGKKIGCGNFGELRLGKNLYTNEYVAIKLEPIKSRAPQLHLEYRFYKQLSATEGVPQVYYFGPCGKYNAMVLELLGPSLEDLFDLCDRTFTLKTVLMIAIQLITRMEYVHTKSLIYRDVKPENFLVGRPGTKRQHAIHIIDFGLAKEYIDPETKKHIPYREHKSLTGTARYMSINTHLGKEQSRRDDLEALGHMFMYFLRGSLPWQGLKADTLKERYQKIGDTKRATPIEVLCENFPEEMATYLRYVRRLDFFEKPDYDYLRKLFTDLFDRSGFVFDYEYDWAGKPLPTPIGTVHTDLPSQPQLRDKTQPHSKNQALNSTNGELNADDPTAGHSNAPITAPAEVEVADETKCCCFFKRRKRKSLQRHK
Sequence of EPHA5 (P54756 25-1037): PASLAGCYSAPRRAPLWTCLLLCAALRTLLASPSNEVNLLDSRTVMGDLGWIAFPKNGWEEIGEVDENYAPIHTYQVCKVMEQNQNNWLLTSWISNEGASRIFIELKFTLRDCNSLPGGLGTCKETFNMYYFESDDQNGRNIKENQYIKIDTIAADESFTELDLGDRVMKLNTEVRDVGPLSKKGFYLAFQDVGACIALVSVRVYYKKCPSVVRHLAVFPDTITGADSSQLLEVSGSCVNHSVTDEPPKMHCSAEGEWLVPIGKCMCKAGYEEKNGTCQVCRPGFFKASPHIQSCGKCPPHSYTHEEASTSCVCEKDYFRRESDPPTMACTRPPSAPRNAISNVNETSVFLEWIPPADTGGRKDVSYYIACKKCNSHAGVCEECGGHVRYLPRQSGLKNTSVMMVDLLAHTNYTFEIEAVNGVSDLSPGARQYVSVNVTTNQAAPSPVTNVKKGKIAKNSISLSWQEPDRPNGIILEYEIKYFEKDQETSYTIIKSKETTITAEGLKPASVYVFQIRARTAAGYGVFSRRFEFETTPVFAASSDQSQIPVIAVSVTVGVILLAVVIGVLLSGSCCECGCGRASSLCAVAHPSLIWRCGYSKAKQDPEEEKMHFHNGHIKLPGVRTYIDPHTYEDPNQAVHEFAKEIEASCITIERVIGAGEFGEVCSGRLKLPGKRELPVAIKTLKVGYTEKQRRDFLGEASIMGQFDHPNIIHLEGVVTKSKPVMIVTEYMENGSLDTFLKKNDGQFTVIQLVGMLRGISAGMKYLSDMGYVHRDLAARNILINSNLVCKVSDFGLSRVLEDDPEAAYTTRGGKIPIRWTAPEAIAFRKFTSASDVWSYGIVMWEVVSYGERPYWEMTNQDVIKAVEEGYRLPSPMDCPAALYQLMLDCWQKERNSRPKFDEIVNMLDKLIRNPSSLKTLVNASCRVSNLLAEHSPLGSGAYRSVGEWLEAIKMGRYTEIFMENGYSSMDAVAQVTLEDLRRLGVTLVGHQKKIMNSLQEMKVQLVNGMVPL
Sequence of EGFR(L861Q) (P00533 25-1210 L861Q): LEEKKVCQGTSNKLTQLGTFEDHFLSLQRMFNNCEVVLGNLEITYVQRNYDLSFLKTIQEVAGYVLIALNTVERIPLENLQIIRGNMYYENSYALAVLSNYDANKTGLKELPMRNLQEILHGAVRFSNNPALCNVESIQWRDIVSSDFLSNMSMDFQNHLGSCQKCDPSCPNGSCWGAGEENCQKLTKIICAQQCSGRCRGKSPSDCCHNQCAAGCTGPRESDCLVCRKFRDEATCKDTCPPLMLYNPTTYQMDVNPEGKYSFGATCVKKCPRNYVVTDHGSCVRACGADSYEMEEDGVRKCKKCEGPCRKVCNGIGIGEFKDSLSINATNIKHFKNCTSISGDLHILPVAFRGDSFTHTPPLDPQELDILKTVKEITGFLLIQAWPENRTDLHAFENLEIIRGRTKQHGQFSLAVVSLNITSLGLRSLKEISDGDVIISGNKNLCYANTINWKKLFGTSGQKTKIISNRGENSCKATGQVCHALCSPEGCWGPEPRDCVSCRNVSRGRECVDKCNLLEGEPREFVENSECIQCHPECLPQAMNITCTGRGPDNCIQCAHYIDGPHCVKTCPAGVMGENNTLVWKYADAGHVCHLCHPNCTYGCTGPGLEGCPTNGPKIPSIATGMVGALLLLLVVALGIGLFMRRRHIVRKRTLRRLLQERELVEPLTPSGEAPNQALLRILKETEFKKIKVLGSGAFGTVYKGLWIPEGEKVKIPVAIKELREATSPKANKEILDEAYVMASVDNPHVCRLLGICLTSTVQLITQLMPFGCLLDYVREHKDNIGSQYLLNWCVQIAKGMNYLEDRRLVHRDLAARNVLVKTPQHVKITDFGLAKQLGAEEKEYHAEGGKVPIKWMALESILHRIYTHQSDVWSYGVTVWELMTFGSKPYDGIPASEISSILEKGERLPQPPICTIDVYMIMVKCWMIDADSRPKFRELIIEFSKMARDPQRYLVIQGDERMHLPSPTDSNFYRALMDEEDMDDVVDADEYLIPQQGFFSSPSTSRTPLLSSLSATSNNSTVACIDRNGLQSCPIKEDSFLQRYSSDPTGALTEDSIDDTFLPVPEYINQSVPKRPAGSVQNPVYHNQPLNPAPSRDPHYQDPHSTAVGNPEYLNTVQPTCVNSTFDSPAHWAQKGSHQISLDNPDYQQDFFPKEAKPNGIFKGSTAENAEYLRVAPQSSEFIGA
Sequence of PGK (Q13976 whole entry): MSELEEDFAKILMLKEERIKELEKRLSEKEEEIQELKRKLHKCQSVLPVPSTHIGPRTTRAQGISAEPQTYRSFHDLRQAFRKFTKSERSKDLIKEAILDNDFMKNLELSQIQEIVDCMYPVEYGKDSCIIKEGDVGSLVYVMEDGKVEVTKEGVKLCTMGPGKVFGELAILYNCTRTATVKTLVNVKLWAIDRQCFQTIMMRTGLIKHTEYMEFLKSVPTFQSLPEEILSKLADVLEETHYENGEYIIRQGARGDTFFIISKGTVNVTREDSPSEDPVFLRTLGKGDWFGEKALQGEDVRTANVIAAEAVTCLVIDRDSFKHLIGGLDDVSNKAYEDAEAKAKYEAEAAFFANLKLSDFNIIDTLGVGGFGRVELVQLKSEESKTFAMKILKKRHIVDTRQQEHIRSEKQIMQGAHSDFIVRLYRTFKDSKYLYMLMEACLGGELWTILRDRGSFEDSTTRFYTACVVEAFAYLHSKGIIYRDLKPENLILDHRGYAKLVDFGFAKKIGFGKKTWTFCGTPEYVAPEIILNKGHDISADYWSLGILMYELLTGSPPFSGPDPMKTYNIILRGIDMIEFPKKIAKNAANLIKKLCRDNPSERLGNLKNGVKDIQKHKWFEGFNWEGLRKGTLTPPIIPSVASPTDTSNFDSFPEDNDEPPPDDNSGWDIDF
Sequence of TSSK2 (Q96PF2 whole entry): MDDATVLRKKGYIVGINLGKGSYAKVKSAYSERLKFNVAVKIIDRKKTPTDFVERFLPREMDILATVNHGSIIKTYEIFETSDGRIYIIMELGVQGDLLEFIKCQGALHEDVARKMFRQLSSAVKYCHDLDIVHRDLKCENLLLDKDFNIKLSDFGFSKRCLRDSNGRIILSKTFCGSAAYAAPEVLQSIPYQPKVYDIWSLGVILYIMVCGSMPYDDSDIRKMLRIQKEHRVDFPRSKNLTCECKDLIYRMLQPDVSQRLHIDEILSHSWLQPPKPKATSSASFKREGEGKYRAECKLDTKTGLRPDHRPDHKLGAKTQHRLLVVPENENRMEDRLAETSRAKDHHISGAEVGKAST
Sequence of PKACγ (P22612 whole entry): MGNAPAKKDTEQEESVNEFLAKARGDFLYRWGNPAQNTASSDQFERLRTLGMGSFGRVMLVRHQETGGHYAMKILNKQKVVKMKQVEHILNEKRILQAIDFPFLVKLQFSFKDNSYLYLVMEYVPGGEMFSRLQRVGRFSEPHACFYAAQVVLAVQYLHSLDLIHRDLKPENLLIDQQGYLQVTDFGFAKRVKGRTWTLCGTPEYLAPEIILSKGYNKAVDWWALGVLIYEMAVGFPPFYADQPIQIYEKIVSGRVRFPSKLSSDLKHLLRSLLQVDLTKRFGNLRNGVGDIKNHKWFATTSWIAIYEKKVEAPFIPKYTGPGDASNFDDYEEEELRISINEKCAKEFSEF

Q: What does the source list for `CCC1(c2ccccc2)C2=C(CC(C)(C)CC2=O)Nc2ncsc21` (stereo not shown) [Compound 1, 9-Ethyl-6,6-dimethyl-9-phenyl-5,6,7,9-tetrahydrothiazolo[4,5-b]quinolin-8(4H)-one]?
A: inhibition at 10 µM (CDC2/CycB1): 22.7%; inhibition at 10 µM (NEK6): 20.9%; inhibition at 10 µM (EPHB2): 14.5%; inhibition at 10 µM (YES(T348I)): 13.5%; inhibition at 10 µM (EPHA5): 9.3%; inhibition at 10 µM (PKCη): 9.3%; inhibition at 10 µM (MET): 8.9%; inhibition at 10 µM (CHK1): 7%; inhibition at 10 µM (TSSK2): 3.1%; inhibition at 10 µM (CK1γ2): 3.1%; inhibition at 10 µM (MAP2K3_Cascade): 2.9%; inhibition at 10 µM (LCK): 1.7%; inhibition at 10 µM (CK1γ1): 1.2%; inhibition at 10 µM (PIM3): 1.1%; inhibition at 10 µM (PGK): 0.9%; inhibition at 10 µM (DDR2): 0.6%; inhibition at 10 µM (RET(M918T)): 0.6%; inhibition at 10 µM (p70S6Kβ): 0.5%; inhibition at 10 µM (PDGFRα(T674I)): 0.3%; inhibition at 10 µM (PDHK2): 0.1%; inhibition at 10 µM (KIT(D816E)): -0.2%; inhibition at 10 µM (SRPK1): -0.3%; inhibition at 10 µM (RET(Y791F)): -1.6%; inhibition at 10 µM (FAK): -2%; inhibition at 10 µM (AurA/TPX2): -2.7%; inhibition at 10 µM (HCK): -3%; inhibition at 10 µM (MST4): -3.3%; inhibition at 10 µM (PKACγ): -5.6%; inhibition at 10 µM (DYRK1A): -5.8%; inhibition at 10 µM (SYK): -5.8%; inhibition at 10 µM (TAOK2): -5.9%; inhibition at 10 µM (PEK): -6%; inhibition at 10 µM (EGFR(L861Q)): -6.1%; inhibition at 10 µM (MST1): -6.6%; % Inhibition at 10 μM of the test compound (RAF1_Cascade): −6.7%; inhibition at 10 µM (MAPKAPK 5): -8.5%; inhibition at 10 µM (SGK2): -8.7%; inhibition at 10 µM (PKCθ): -11.2%; inhibition at 10 µM (MAPKAPK2): -13.4%; inhibition at 10 µM (SRM): -15.1%
